Data reported in patent US8217063B2, “Lactam-substituted dicarboxylic acids and use thereof” (Bayer Intellectual Property GmbH, priority 2007, dated 2012).

What was measured:
saphenous artery = assay: Vasorelaxant effect in vitro (phenylephrine-contracted artery rings); parameters: species or system Rabbits; conditions: Oryctolagus cuniculus; rabbit saphenous artery rings, contraction induced by phenylephrine
Method: B-1. Vasorelaxant Effect In Vitro:
Rabbits are anesthetized and sacrificed by intravenous injection of thiopental sodium (about 50 mg/kg) and exsanguinated. The saphenous artery is removed and divided into rings 3 mm wide. The rings are mounted singly on in each case a pair of triangular hooks open at the end and made of 0.3 mm-thick special wire (Remanium®). Each ring is placed under an initial tension in 5 ml organ baths with Krebs-Henseleit solution which is at 37° C., is gassed with carbogen and has the following composition: NaCl 119 mM; KCl 4.8 mM; CaCl2×2H2O 1 mM; MgSO4×7H2O 1.4 mM; KH2PO4 1.2 mM; NaHCO3 25 mM; glucose 10 mM; bovine serum albumin 0.001%. The force of contraction is detected with Statham UC2 cells, amplified and digitized via A/D converters (DAS-1802 HC, Keithley Instruments, Munich) and recorded in parallel on chart recorders. Contractions are induced by addition of phenylephrine.
After several (generally 4) control cycles, the substance to be investigated is added in each further run in increasing dosage, and the height of the contraction achieved under the influence of the test substance is compared with the height of the contraction reached in the last preceding run. The concentration necessary to reduce the contraction reached in the preceding control by 50% is calculated from this (IC50). The standard application volume is 5 μl. The proportion of DMSO in the bath solution corresponds to 0.1%.

[1] = target: T1, recombinant guanylate cyclase reporter cell line (Rattus norvegicus, UniProt P20595); assay: sGC-activating activity in the CHO reporter cell in vitro; assay type: cell-based
T1 construct: expressed in transfected cells; host or cells: CHO
T1 sequence (P20595 1-619): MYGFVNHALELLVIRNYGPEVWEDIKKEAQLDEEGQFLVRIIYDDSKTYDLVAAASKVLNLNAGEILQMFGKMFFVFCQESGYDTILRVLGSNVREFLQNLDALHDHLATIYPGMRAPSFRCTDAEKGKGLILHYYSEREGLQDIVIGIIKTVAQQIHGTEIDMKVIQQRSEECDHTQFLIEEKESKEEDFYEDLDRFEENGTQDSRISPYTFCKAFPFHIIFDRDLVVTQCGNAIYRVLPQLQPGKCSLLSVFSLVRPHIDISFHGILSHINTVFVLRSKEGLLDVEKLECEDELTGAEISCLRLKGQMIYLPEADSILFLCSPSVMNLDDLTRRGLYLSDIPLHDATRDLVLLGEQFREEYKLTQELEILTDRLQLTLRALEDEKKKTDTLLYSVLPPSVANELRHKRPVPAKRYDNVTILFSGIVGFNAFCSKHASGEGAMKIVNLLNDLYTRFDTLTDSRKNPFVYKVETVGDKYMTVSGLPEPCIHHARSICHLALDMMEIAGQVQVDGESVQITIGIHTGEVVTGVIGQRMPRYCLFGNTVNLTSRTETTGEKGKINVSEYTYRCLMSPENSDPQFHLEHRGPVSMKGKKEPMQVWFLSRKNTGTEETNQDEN
T1 sequence (P19686 1-690 partner): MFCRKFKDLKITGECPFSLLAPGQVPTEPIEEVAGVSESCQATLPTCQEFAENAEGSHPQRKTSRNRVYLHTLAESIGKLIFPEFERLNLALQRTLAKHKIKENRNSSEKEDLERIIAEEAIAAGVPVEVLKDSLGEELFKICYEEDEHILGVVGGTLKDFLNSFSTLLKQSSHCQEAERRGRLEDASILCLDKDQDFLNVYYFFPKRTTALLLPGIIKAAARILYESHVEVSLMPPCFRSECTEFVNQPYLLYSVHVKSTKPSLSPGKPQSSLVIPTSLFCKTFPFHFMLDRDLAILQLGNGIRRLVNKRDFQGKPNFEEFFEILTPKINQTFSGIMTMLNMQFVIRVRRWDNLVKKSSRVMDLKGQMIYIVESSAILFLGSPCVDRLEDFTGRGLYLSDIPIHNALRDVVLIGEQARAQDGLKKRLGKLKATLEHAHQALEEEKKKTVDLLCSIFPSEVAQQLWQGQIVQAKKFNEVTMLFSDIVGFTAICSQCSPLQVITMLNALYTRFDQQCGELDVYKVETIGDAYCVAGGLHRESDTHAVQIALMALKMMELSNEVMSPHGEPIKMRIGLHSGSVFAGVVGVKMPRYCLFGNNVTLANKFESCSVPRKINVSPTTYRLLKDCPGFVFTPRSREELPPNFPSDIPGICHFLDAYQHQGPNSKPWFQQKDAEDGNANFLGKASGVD
Method: B-3. Action at Recombinant Guanylate Cyclase Reporter Cell Lines
The cellular action of the compounds according to the invention is determined using a recombinant guanylate cyclase reporter cell line, as described in F. Wunder et al., Anal. Biochem. 339, 104-112 (2005).

Heme-free sGC = target: T2, Heme-free sGC (Rattus norvegicus, UniProt P20595); assay: Stimulation of recombinant soluble guanylate cyclase (sGC) in vitro, heme-free enzyme; assay type: biochemical; conditions: heme-free sGC (0.5% Tween 20)
T2 construct: made in house; host or cells: baculovirus/Sf9
T2 sequence (P20595 1-619): T1 sequence (P20595 1-619)
T2 sequence (P19686 1-690 partner): T1 sequence (P19686 1-690 partner)
Method: (§1) B-2. Stimulation of Recombinant Soluble Guanylate Cyclase (sGC) In Vitro:
Investigations on the stimulation of recombinant soluble guanylate cyclase (sGC) by the compounds according to the invention with and without sodium nitroprusside, and with and without the heme-dependent sGC inhibitor 1H-1,2,4-oxadiazole-(4,3a)-quinoxalin-1-one (ODQ) are carried out by the method described in detail in the following reference: M. Hoenicka, E. M. Becker, H. Apeler, T. Sirichoke, H. Schroeder, R. Gerzer and J.-P. Stasch, “Purified soluble guanylyl cyclase expressed in a baculovirus/Sf9 system: Stimulation by YC-1, nitric oxide, and […]”, J. Mol. Med. 77 (1999), 14-23. The heme-free guanylate cyclase is obtained by adding Tween 20 to the sample buffer (0.5% in the final concentration).
(§2) The activation of sGC by a test substance is reported as n-fold stimulation of the basal activity.

Heme-containing sGC = target: T3, Heme-containing sGC (Rattus norvegicus, UniProt P20595); assay: Stimulation of recombinant soluble guanylate cyclase (sGC) in vitro, heme-containing enzyme; assay type: biochemical
T3 construct: made in house; host or cells: baculovirus/Sf9
T3 sequence (P20595 1-619): T1 sequence (P20595 1-619)
T3 sequence (P19686 1-690 partner): T1 sequence (P19686 1-690 partner)
Excerpt: as §1
Hoenicka, E. M. Becker, H. Apeler, T. Sirichoke, H. Schroeder, R. Gerzer and J.-P. Stasch, “Purified soluble guanylyl cyclase expressed in a baculovirus/Sf9 system: Stimulation by YC-1, nitric oxide, and carbon oxide”, J. Mol. Med. 77 (1999), 14-23. The heme-free guanylate cyclase is obtained by adding Tween 20 to the sample buffer (0.5% in the final concentration).
as §2

- IC50 (saphenous artery): 52 nM
- MEC (minimum effective concentration) [1]: 1 nM
- Stimulation (n-fold) of heme-free sGC, Basal (Heme-free sGC; 0.01 μM Example 3): 9.9 n-fold
- Stimulation (n-fold) of heme-free sGC, Basal (Heme-free sGC; 0.1 μM Example 3): 35.2 n-fold
- Stimulation (n-fold) of heme-free sGC, Basal (Heme-free sGC; 1 μM Example 3): 69.7 n-fold
- Stimulation (n-fold) of heme-free sGC, Basal (Heme-free sGC; 10 μM Example 3): 74.6 n-fold
- Stimulation (n-fold) of sGC, +0.1 μM DEA/NO (Heme-containing sGC; 0.01 μM Example 3): 23.3 n-fold
- Stimulation (n-fold) of sGC, +0.1 μM DEA/NO (Heme-containing sGC; 0.1 μM Example 3): 34.7 n-fold
- Stimulation (n-fold) of sGC, +0.1 μM DEA/NO (Heme-containing sGC; 1 μM Example 3): 41.6 n-fold
- Stimulation (n-fold) of sGC, +0.1 μM DEA/NO (Heme-containing sGC; 10 μM Example 3): 40.0 n-fold
- Stimulation (n-fold) of sGC, +10 μM ODQ (Heme-containing sGC; 0.01 μM Example 3): 35.1 n-fold
- Stimulation (n-fold) of sGC, +10 μM ODQ (Heme-containing sGC; 0.1 μM Example 3): 98.0 n-fold
- Stimulation (n-fold) of sGC, +10 μM ODQ (Heme-containing sGC; 1 μM Example 3): 124 n-fold
- Stimulation (n-fold) of sGC, +10 μM ODQ (Heme-containing sGC; 10 μM Example 3): 134 n-fold
- Stimulation (n-fold) of sGC, Basal (Heme-containing sGC; 0.01 μM Example 3): 6.1 n-fold
- Stimulation (n-fold) of sGC, Basal (Heme-containing sGC; 0.1 μM Example 3): 11.6 n-fold
- Stimulation (n-fold) of sGC, Basal (Heme-containing sGC; 1 μM Example 3): 16.0 n-fold
- Stimulation (n-fold) of sGC, Basal (Heme-containing sGC; 10 μM Example 3): 18.9 n-fold
- Synergy with the NO donor DEA/NO on sGC (Heme-containing sGC; combination with DEA/NO): no synergistic effect
SMILES: O=C(O)c1ccc(CCC(/C=C/c2ccccc2OCCCN2CCCC2=O)Cc2ccc(C(=O)O)cc2)cc1 (single isomer, unassigned) [Example 3, 4-[(4E)-3-(4-Carboxybenzyl)-5-{2-[3-(2-oxopyrrolidin-1-yl)propoxy]phenyl}pent-4-en-1-yl]-benzoic acid]
